Results published in US7563621B2, “Absorbing organic reagents into diagnostic test devices by formation of amine salt complexes” (Siemens Healhcare Diagnostics Inc, priority 2003, dated 2009).
Values joined by “and” are separate entries in the source; they are usually repeats but may differ in a detail not shown here. Identical values can stand only once. Counter-ions that a name gives are not always drawn.

Columns and labels:
[1] = molecular target: T1, human serum albumin (HSA) (Homo sapiens, UniProt P02768); assay: Automated protein assay with pyrogallol red salts, 74 μM (Example 6); conditions: HSA 25 mg/dL; 10 minutes, 37° C; 900 nm baseline subtracted; Series #1 and #2
Procedure: The dilutor was programmed for reactions of 180 μL reagent+40 μL sample. […] The samples were phosphate buffered saline (blank), human serum albumin (HSA) 25 mg/dL, and other proteins (i.e., human IgG, […], and Lambda Light Chain) at 25 mg/dL. Absorbance data were collected on a Biotek, Powerwave X Microplate Absorbance reader using BioTek “KC Jr” software to determine the relative detection of the different proteins (i.e., HSA, human IgG, […], and Lambda Light Chain) using salts of pyrogallol red. Two sets of replicates of the different proteins were run. […] The protein response was determined by subtracting the phosphate buffered saline sample reaction result from the protein reaction result.

[2] = molecular target: T1, human serum albumin (HSA); assay: Automated protein assay with pyrogallol red salts, 54 μM (Example 5); conditions: 10 minutes
Procedure: (§1) The dilutor was programmed for reactions of 180 μL reagent+40 μL sample. […] The samples were phosphate buffered saline (blank), human serum albumin (HSA) 25 mg/dL, and other proteins (i.e., human IgG, […], and Lambda Light Chain) at 25 mg/dL. Absorbance rate data were collected on a Biotek, Powerwave X Microplate Absorbance reader using BioTek “KC Jr” software to determine the relative detection of the different proteins (i.e., HSA, human IgG, […], and Lambda Light Chain) using salts of pyrogallol red. Two sets of replicates of the different proteins were run. […] The protein response was determined by subtracting the phosphate buffered saline sample reaction result from the protein reaction result.

human IgG [3] = assay: as above; conditions: IgG 25 mg/dL; 10 minutes; averaged data; listed as Sodium Salt
Procedure: as §1

Tamm-Horsfall [4] = molecular target: T2, Tamm-Horsfall (Homo sapiens, UniProt P07911); assay: as above; conditions: 10 minutes
Procedure: as §1

Lambda Light Chain [5] = assay: as above; conditions: Lambda Light Chain 25 mg/dL; 10 minutes; averaged data; listed as Sodium Salt
Procedure: as §1

human IgG [6] = assay: Automated protein assay with pyrogallol red salts, 74 μM (Example 6); conditions: Series #1 and #2
Procedure: (§2) The dilutor was programmed for reactions of 180 μL reagent+40 μL sample. […] The samples were phosphate buffered saline (blank), human serum albumin (HSA) 25 mg/dL, and other proteins (i.e., human IgG, […], and Lambda Light Chain) at 25 mg/dL. Absorbance data were collected on a Biotek, Powerwave X Microplate Absorbance reader using BioTek “KC Jr” software to determine the relative detection of the different proteins (i.e., HSA, human IgG, […], and Lambda Light Chain) using salts of pyrogallol red. Two sets of replicates of the different proteins were run. […] The protein response was determined by subtracting the phosphate buffered saline sample reaction result from the protein reaction result. […] The results for protein equivalence of the non-albumin proteins were expressed as a percentage of the protein colorimetric response to HSA as shown in Table 11 below.

Tamm-Horsfall [7] = molecular target: T2, Tamm-Horsfall; assay: as above; conditions: Series #1 and #2
Procedure: as §2

Lambda Light Chain [8] = assay: as above; conditions: Series #1 and #2; for Percent Detection as Percentage of HSA Detection: Lambda Light Chain
Procedure: as §2

[9] = Butanol/water partitioning of pyrogallol red dye salts (Example 3); format: physicochemical; conditions: 276 nm, Sodium Hydroxide
Procedure: Extractions were then performed in Mixxor extractors.

[10] = HSA 25 mg/dL, 37° C, replicates #1 and #2
[11] = HSA, 37° C, replicates #1 and #2
[12] = Tamm-Horsfall 25 mg/dL, 37° C, replicates #1 and #2
[13] = Tamm-Horsfall, 37° C, replicates #1 and #2

T1 sequence (P02768 25-609): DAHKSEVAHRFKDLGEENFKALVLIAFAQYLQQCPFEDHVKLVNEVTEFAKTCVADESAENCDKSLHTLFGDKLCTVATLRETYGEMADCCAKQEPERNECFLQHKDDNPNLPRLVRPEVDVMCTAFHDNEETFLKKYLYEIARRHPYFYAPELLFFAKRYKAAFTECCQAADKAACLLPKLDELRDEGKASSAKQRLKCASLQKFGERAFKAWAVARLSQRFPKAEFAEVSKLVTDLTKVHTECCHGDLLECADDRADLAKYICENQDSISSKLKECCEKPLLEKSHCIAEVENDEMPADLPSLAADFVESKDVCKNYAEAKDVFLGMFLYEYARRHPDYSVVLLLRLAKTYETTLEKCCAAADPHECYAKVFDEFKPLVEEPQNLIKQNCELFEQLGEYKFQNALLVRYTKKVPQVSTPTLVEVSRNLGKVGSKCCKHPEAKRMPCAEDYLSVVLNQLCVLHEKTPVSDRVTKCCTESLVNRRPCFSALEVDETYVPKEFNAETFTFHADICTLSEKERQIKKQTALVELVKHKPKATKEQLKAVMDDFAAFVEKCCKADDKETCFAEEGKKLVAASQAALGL

Structure (SMILES): O=c1ccc2c(-c3ccccc3S(=O)(=O)O)c3ccc(O)c(O)c3oc-2c1O [Sodium Pyrogallol Red Salt, pyrogallol red, reference compound]
- average net absorbance at 600 nm after subtracting PBS sample reaction result [1]: 0.0563 and 0.0536
- 600 nm Absorbance Level, salt with Protein [2, 10]: 0.211
- 900 nm Absorbance Background Level, salt with Protein [2, 10]: 0.035
- Reaction Absorbance at 600 nm − Absorbance at 900 nm (net protein response, protein minus non-protein sample) ([2]; HSA 25 mg/dL, averaged data, listed as Sodium Salt): 0.015
- 600 nm Absorbance Level, salt in Phosphate Buffered Saline (No Protein) [2, 11]: 0.197 and 0.196
- 900 nm Absorbance Background Level, salt in Phosphate Buffered Saline (No Protein) [2, 11]: 0.035
- Reaction Absorbance at 600 nm − Absorbance at 900 nm (net protein response, protein minus non-protein sample) (human IgG [3]): 0.008
- 600 nm Absorbance Level, salt with Protein (Tamm-Horsfall [4]; [12]): 0.203 and 0.204
- 900 nm Absorbance Background Level, salt with Protein (Tamm-Horsfall [4]; [12]): 0.036
- Reaction Absorbance at 600 nm − Absorbance at 900 nm (net protein response, protein minus non-protein sample) (Tamm-Horsfall [4]; Tamm-Horsfall 25 mg/dL, averaged data, listed as Sodium Salt): 0.007
- 600 nm Absorbance Level, salt in Phosphate Buffered Saline (No Protein) (Tamm-Horsfall [4]; [13]): 0.196 and 0.198
- 900 nm Absorbance Background Level, salt in Phosphate Buffered Saline (No Protein) (Tamm-Horsfall [4]; [13]): 0.036 and 0.035
- Reaction Absorbance at 600 nm − Absorbance at 900 nm (net protein response, protein minus non-protein sample) (Lambda Light Chain [5]): 0.006
- average net absorbance at 600 nm after subtracting PBS sample reaction result (human IgG [6]; IgG 25 mg/dL, 10 minutes, 37° C, 900 nm baseline subtracted): 0.0311 and 0.0318
- Percent Detection as Percentage of HSA Detection (human IgG [6]; IgG): 58% and 56%
- average net absorbance at 600 nm after subtracting PBS sample reaction result (Tamm-Horsfall [7]; Tamm-Horsfall 25 mg/dL, 10 minutes, 37° C, 900 nm baseline subtracted): 0.0141 and 0.0118
- Percent Detection as Percentage of HSA Detection (Tamm-Horsfall [7]; Tamm-Horsfall): 26% and 21%
- average net absorbance at 600 nm after subtracting PBS sample reaction result (Lambda Light Chain [8]; Lambda Light Chain 25 mg/dL, 10 minutes, 37° C, 900 nm baseline subtracted): 0.0041 and 0.0037
- Percent Detection as Percentage of HSA Detection (Lambda Light Chain [8]): 8% and 7%
- Percent Detection as Percentage of HSA Detection (Lambda Light Chain [8]; listed as sodium): 8%
- Ratio of Butanol Absorbance to Water Absorbance [9]: 0.10
- Absorbance of Dye Salt in Butanol ([9]; butanol layer): 0.034
- Absorbance of Dye Salt in Water ([9]; water layer): 0.338
